Measured values as given in publication PMC12336229, “Peptide-mimetics derived from leucyl-tRNA synthetase are potential agents for the therapy of mt-tRNA related diseases” (Frontiers in Pharmacology, 2025).

Key:
[1] = test system: mutant cybrids; experiment: Confocal fluorescence microscopy, co-localization with mitochondria (Mitotracker Red); type: cell-based, human
Protocol: (§1) Previously established osteosarcoma-derived (143B.TK-) cybrid cell lines from patients, which bear either the m.3243A>G mutation in mt-tRNA^Leu(UUR) or the m.8344A>G mutation in mt-tRNA^Lys and controls ([Perli et al., 2014]; [Perli et al., 2016]; [Perli et al., 2020]) were used.
Constructs made of compounds listed in Table 1, comprising D-peptides linked to the Cy5 fluorophore via maleimide cross-linker, were administered to sub-confluent cybrid cell cultures at 0.25 µM in glucose medium. About 24 h after treatment with each construct, cells were incubated with 200 nM Mitotracker Red FM (LifeTechnologies Italia, Monza, Italy) for 30 min at 37°C.
Subsequently, cells were visualized by confocal microscopy. Images of 800 × 800 px (at 88 nm/px) were acquired at the Olympus iX83 FluoView1200 laser scanning confocal microscope using a 60 × NA1,35 oil objective (Olympus Italia SRL Milano, Italy), zoom 3×, 559 nm, and 635 nm lasers and filter setting for Mitotracker Red and Cy5. The fluorescence images were analysed with the ImageJ software ([Rasband, 2018]) to determine the Pearson’s correlation coefficient.
For a subset of experiments, we evaluated the mt localization of constructs up to 72 h after treatment. PMT and PMT fragments were administered to sub-confluent cybrids at a concentration of 0.25 µM in the glucose medium. At 24-, 48- and 72-h after treatment, cells were incubated with Mitotracker Red and visualized by confocal microscopy. After each confocal imaging section, a fresh glucose medium was added to the cells, which were maintained under standard conditions (a humidified atmosphere of 95% air and 5% CO2 at 37°C).

[2] = test system: control cells (WT and L-8344 cybrids); experiment: Cell viability in galactose medium (Trypan blue dye exclusion); type: cell-based, human; details: WT and L-8344 cells; 24 h galactose medium
Protocol: as §1
(§2) Cybrid cells were cultured in Dulbecco’s modified Eagle’s medium (DMEM), supplemented with 4.5 g/L D-glucose, 10% foetal bovine serum (FBS), 2 mM L-glutamine, 50 μg/ML uridine, 100 U/mL penicillin, and […] (referred to as glucose medium) in a humidified atmosphere of 95% air and 5% CO2 at 37°C. For cell viability experiments, cells were grown either in glucose medium or in glucose-free DMEM, supplemented with 5 mM galactose, […], and 10% FBS (referred to as galactose medium). The reason for using the latter medium is that a pathological phenotype can be appreciated in cells growing on galactose, which forces cells to rely on mitochondrial respiration, but not in cells growing on glucose.
(§3) To assess growth capability, cells were harvested and seeded at 30 × 10^4 in 60 mm dishes in glucose medium for 24 h with the addition of one of the compounds. Cells were switched in glucose or galactose and, after 24 h, cell viability was measured by the Trypan blue dye exclusion assay. Cells were harvested with 0.25% trypsin and 0.2% EDTA, washed, suspended in PBS in the presence of Trypan blue solution (Sigma–Aldrich) at 1:1 ratio and counted using a hemocytometer. The number of viable cells in the galactose medium was expressed as a percentage of the number of cells in glucose medium.

[3] = test system: m.3243A>G mutant cybrids; experiment: as above; type: cell-based, human; details: 5 µM; 24 h galactose medium; compared with non-treated mutant cells; at least three independent experiments
Protocol: as §1, §2, §3

[4] = test system: m.8344A>G mutant cybrids (H-8344); experiment: as above; type: cell-based, human; details: 5 µM; 24 h galactose medium; compared with non-treated mutant cells; at least three independent experiments
Protocol: as §1, §2, §3

[5] = Plasma stability (UPLC-MS); type: in vitro ADME, human; details: 37°C
Protocol: To assess whether the β32_33 peptide, PMT, PMT-8a and PMT-8b peptide-mimetics are stable in blood, we set up a chromatographic assay able to evaluate compound concentration after incubation in human plasma.
Four different samples from healthy volunteers were used. Blood was drawn by venepuncture in vacutainer containing EDTA as an anticoagulant. Plasma was separated by centrifugation and immediately used for the experiments. Each compound was dissolved in 500 μL plasma at a final concentration of 0.2 mM and split into two aliquots, one of which was immediately analysed to assess the basal compound level (T0); the other was incubated at 37°C under gentle shaking, and the amount of each compound was measured at different time points (i.e., 1.5, 3, 6 and 72 h).
To perform chromatographic analyses, the samples were treated with 3 volumes of acetonitrile containing 1% formic acid and then extracted by using the Ostro™ pass-through sample preparation system to remove proteins and phospholipids. Samples were dried under vacuum, resuspended in 100 μL of 0.1% formic acid containing 5% acetonitrile, and then injected directly onto the chromatographic column.
Chromatographic analyses were performed on a Water Acquity H-Class UPLC system (Waters, Milford, MA, United States), including a quaternary solvent manager (QSM), a sample manager with a flow-through needle system (FTN), a photodiode array detector (PDA) and a single-quadruple mass detector with electrospray ionization source (ACQUITY QDa). Analyses were performed on a reverse phase C18 column (75 mm × 3.2 mm i. d., 2.5 μm particle size). The mobile phase was solvent A, 0.1% formic acid in water, and solvent B, 0.1% formic acid in acetonitrile. The flow rate was 0.5 mL/min, the column temperature was set at 25°C and the elution was performed by linearly increasing the concentration of solvent B up to 70% in 7 min. Mass spectrometric detection was performed in the positive electrospray ionization mode, using nitrogen as the nebulizer gas. Analyses were performed in the Total Ion Current (TIC) mode with a mass range of 100–1200 m/z. The capillary voltage was 0.8 kV, cone voltage 8 V, ion source temperature 120°C and probe temperature 600°C. Quantification was performed by Selected Ion Recording (SIR): at m/z = 917.88, corresponding to the [M+2H]^2+ ion obtained from either β32_33 peptide or PMT; at m/z = 961.42, corresponding to the [M + H] ^+ obtained from PMT-8a; and at m/z = 869.48, corresponding to the [M + H]^+ ion obtained from PMT-8b.

[6] = test system: Adult C57BL/6 male mice; experiment: Morphological analysis of selected organs (hematoxylin and eosin); type: in vivo, mouse; details: 1, 5 and 10 mg/kg i.v.; hematoxylin and eosin sections; treated vs controls
Protocol: After the test, mice were sacrificed under general anaesthesia (4% isoflurane in medical air) by cardiac puncture to withdraw blood, brain, heart, liver, kidney, spleen, and lymph nodes, which were collected into tubes with buffered formalin and stored at +4°C.
At the end of the tolerability test, tissues collected from animals injected with saline (n = 5) or treated with 1, 5 and 10 mg/kg of PMT (n = 10), were formalin-fixed and paraffin-embedded. Five µm-thick sections were obtained from the paraffin blocks and stained with hematoxylin and eosin for histologic examination.

SMILES: CC[C@@H](C)[C@@H](NC(=O)[C@@H](CC(C)C)NC(=O)[C@@H](C)NC(=O)[C@H](NC(=O)[C@@H](CCCNC(=N)N)NC(=O)[C@H]1CCCN1C(=O)[C@@H](CO)NC(=O)[C@@H](CC(C)C)NC(=O)[C@@H](Cc1ccccc1)NC(=O)[C@@H](CO)NC(=O)[C@@H](CCCCN)NC(=O)[C@H](N)CCCCN)[C@H](C)O)C(=O)N[C@H](CC(N)=O)C(=O)N[C@H](Cc1ccccc1)C(=O)N[C@H](CC(C)C)C(=O)N[C@@H](C(N)=O)C(C)C [PMT]
- Pearson's correlation coefficient (PCC), mt localization ([1]; Cy5 constructs 0.25 µM in glucose medium, imaged after 24 h, Mitotracker Red, mean ± SEM of at least five images): 0.83 ± 0.02
- Mitochondrial localization over time ([1]; Cy5 constructs 0.25 µM, imaged after 24, 48 and 72 hours): colocalize with mitochondria up to 72 hours
- Cell viability of control cells [2]: do not affect
- Cell viability (viable cells in galactose as % of glucose medium) [3]: significant improvement of cell viability
- Cell viability (viable cells in galactose as % of glucose medium) [4]: significant improvement of cell viability
- remaining at 72 h, 0.2 mM ([5]; 72 h, human EDTA plasma from four healthy volunteers, gentle shaking, UPLC-MS (SIR), peak area vs time 0, read-out: Amount of detectable compound after incubation with human plasma): ~25%
- Plasma stability compared with β32_33 peptide ([5]; all time points (1.5, 3, 6, 72 h), human plasma, 0.2 mM, UPLC-MS): significantly higher plasma stability
- Morphological change in organs or tissues [6]: did not reveal any morphological change
